The supplement of paper PMC7108870

What was measured:
[1] = tested on: HEK293sieSTAT3(Y640F); assay: drug sensitivity score (DSS), cytotoxicity CellTox Green (DSS (dimensionless)); higher = more cytotoxic; extreme values may be limits of the assay; details: 72 h; STAT3 variant: Y640F (constitutively active)
Procedure, shortened: (§1)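 In 384-well plates with acoustically pre-plated compounds (5 concentrations, 10-fold dilutions), 20 μl of HEK293 cells at 100,000 cells/ml were added; the cells overexpressed wild-type or mutant STAT3 and carried a STAT3-dependent luciferase reporter. Incubation lasted 72 hours at 37°C and 5% CO2 before sequential CellTox Green (485/520 nm) and CellTiter-Glo reads on a PHERAstar FS. After normalisation to negative and positive control wells, Breeze was used to derive a drug sensitivity score from the dose-response curve area.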

[2] = tested on: HEK293sieSTAT3(wt); assay: as above; details: 72 h; STAT3 variant: wild type
Procedure, shortened: as §1

[3] = tested on: HEK293sieSTAT3(Y640F); assay: drug sensitivity score (DSS), viability CellTiter-Glo (DSS (dimensionless)); higher = more growth inhibition; extreme values may be limits of the assay; details: 72 h; STAT3 variant: Y640F (constitutively active)
Procedure, shortened: as §1

[4] = tested on: HEK293sieSTAT3(wt); assay: as above; details: 72 h; STAT3 variant: wild type
Procedure, shortened: as §1

Compound | drug sensitivity score [1] | drug sensitivity score [2] | drug sensitivity score [3] | drug sensitivity score [4]
CC(C)NC[C@@H](C(=O)N1CCN(c2ncnc3c2[C@H](C)C[C@H]3O)CC1)c1ccc(Cl)cc1 [Ipatasertib] (top concentration tested 10000 nM) | 0 | 0.07 | 14.6 | 16.7
Cc1ccc(C(=O)N(CCCN)[C@@H](c2oc3cc(Cl)ccc3c(=O)c2Cc2ccccc2)C(C)C)cc1 (top concentration tested 100 nM) | 0.83 | 8.48 | 10.7 | 12.3
CC(C)N(C[C@H]1O[C@@H](n2cnc3c(N)ncnc32)[C@H](O)[C@@H]1O)[C@H]1C[C@@H](CCc2nc3cc(C(C)(C)C)ccc3[nH]2)C1 [Pinometostat] (top concentration tested 1000 nM) | 0.46 | 0 | 0.69 | 0
Cc1c(C(=O)Nc2ccc(N3C[C@@H](C)O[C@@H](C)C3)nc2)cccc1-c1ccc(OC(F)(F)F)cc1 [Sonidegib] (top concentration tested 10000 nM) | 0 | 0 | 1.71 | 3.16
Nc1ncn([C@@H]2O[C@H](CO)[C@@H](O)[C@H]2O)c(=O)n1 [Azacitidine] (top concentration tested 10000 nM) | 0 | 0.87 | 2.86 | 2.72
OC[C@H]1O[C@@H](n2cnc3c2N=CNC[C@H]3O)C[C@@H]1O [Pentostatin] (top concentration tested 10000 nM) | 0 | 0 | 0.02 | 1.4
Cn1nnc2c(C(N)=O)ncn2c1=O [Temozolomide] (top concentration tested 100000 nM) | 0.32 | 0 | 0 | 0.36
C=CC(=O)Nc1cc2c(Nc3ccc(F)c(Cl)c3)ncnc2cc1OCCCN1CCOCC1 [Canertinib] (top concentration tested 10000 nM) | 6.41 | 7.96 | 6.3 | 8.37
Nc1cc(C(F)(F)F)c(-c2cc(N3CCOCC3)nc(N3CCOCC3)n2)cn1 [Buparlisib] (top concentration tested 10000 nM) | 0.73 | 4 | 10.5 | 12.3
Cc1cc(OCc2nnc(SC3CCCC3)n2-c2cccnc2)ccc1-c1ccc(S(C)(=O)=O)cc1 [NMS-873] (top concentration tested 10000 nM) | 6.39 | 7.29 | 11.8 | 12.5
N#CCNC(=O)c1ccc(-c2ccnc(Nc3ccc(N4CCOCC4)cc3)n2)cc1 [Momelotinib] (top concentration tested 10000 nM) | 3.84 | 5.09 | 7.37 | 5.53
CC[C@@H]1C(=O)N(C)c2cnc(Nc3ccc(C(=O)N[C@H]4CC[C@H](N5CCN(CC6CC6)CC5)CC4)cc3OC)nc2N1C(C)C [Volasertib] (top concentration tested 1000 nM) | 12.6 | 21.4 | 22.1 | 21.7
CO[C@H]1C[C@@H]2CC[C@@H](C)[C@@](O)(O2)C(=O)C(=O)N2CCCC[C@H]2C(=O)O[C@H]([C@H](C)C[C@@H]2CC[C@@H](OCCO)[C@H](OC)C2)CC(=O)[C@H](C)/C=C(\C)[C@@H](O)[C@@H](OC)C(=O)[C@H](C)C[C@H](C)/C=C/C=C/C=C/1C [Everolimus] (top concentration tested 100 nM) | 0 | 0 | 8.23 | 11.3
CN(C)C1CCN(C(=O)c2ccc(NC(=O)Nc3ccc(-c4nc(N5CCOCC5)nc(N5CCOCC5)n4)cc3)cc2)CC1 [Gedatolisib] (top concentration tested 1000 nM) | 0 | 0.82 | 12.9 | 9.54
CCN(CC)CCNC(=O)c1c(C)[nH]c(/C=C2\C(=O)Nc3ccc(F)cc32)c1C [Sunitinib] (top concentration tested 1000 nM) | 0 | 0 | 0.02 | 0
S=c1[nH]cnc2nc[nH]c12 [Mercaptopurine] (top concentration tested 10000 nM) | 0 | 0 | 7.54 | 7.64
C=CCN(/C=C1/C(=O)O[C@H](COC)[C@@]2(C)C1=C(O)C(=O)C1=C2[C@H](OC(C)=O)C[C@]2(C)C(=O)CC[C@@H]12)CC=C [Sonolisib] (top concentration tested 10000 nM) | 2.34 | 0 | 1.67 | 0.33
NC(=S)N/N=C/c1ncccc1N [Triapine] (top concentration tested 10000 nM) | 1.5 | 0.84 | 14.7 | 9.19
CNC(=O)c1ccc(N2C(=S)N(c3cnc(C#N)c(C(F)(F)F)c3)C(=O)C23CCC3)cc1F [ARN 509] (top concentration tested 10000 nM) | 0 | 0 | 2.68 | 2.33
CN(c1ccccc1CNc1nc(Nc2ccc3c(c2)CC(=O)N3)ncc1C(F)(F)F)S(C)(=O)=O (top concentration tested 10000 nM) | 1.46 | 6.16 | 10.1 | 11.2
Cc1cc(Nc2nc(N[C@@H](C)c3ncc(F)cn3)ncc2Cl)[nH]n1 [AZD1480] (top concentration tested 1000 nM) | 0.04 | 0.43 | 0 | 0.06

Compound | drug sensitivity score [1] | drug sensitivity score [2] | drug sensitivity score [3] | drug sensitivity score [4]
Cc1ccc(-c2cc(C(F)(F)F)nn2-c2ccc(S(N)(=O)=O)cc2)cc1 [Celecoxib] (top concentration tested 10000 nM) | 0 | 0.02 | 0.58 | 4.14
C[C@@H]1C[C@H]2[C@@H]3CCC4=CC(=O)C=C[C@]4(C)[C@@]3(F)[C@@H](O)C[C@]2(C)[C@@]1(O)C(=O)CO [Dexamethasone] (top concentration tested 10000 nM) | 0 | 0 | 3 | 2.01
O=C1c2c(O)ccc(O)c2C(=O)c2c(NCCNCCO)ccc(NCCNCCO)c21 [Mitoxantrone] (top concentration tested 1000 nM) | 0.1 | 0.93 | 10.6 | 9.78
Nc1ncnc2c1nc(Cl)n2[C@@H]1O[C@H](CO)[C@@H](O)[C@H]1O [8-chloro-adenosine] (top concentration tested 50000 nM) | 2.41 | 7.97 | 16.2 | 18.4
C/C=C1\NC(=O)[C@H]2CSSCC/C=C/[C@H](CC(=O)N[C@H](C(C)C)C(=O)N2)OC(=O)[C@H](C(C)C)NC1=O [Romidepsin] (top concentration tested 1000 nM) | 23.6 | 29.9 | 32.4 | 29.5
CS(=O)(=O)N1CCc2c(-c3cnc(N)nc3)nc(N3CCOCC3)nc21 (top concentration tested 10000 nM) | 0 | 5.98 | 12 | 15.5
Cn1c(CCCC(=O)O)nc2cc(N(CCCl)CCCl)ccc21 [Bendamustine] (top concentration tested 10000 nM) | 0 | 0 | 0.53 | 3.94
CNC(=O)c1cc(Oc2ccc(NC(=O)Nc3ccc(Cl)c(C(F)(F)F)c3)cc2)ccn1 [Sorafenib] (top concentration tested 1000 nM) | 1.07 | 0 | 0 | 0.09
COc1cc([C@@H]2c3cc4c(cc3[C@@H](O[C@@H]3O[C@@H]5CO[C@@H](c6cccs6)O[C@H]5[C@H](O)[C@H]3O)[C@H]3COC(=O)[C@H]23)OCO4)cc(OC)c1O [Teniposide] (top concentration tested 10000 nM) | 2.03 | 8.89 | 29 | 29.6
O=C1NC(=O)/C(=C/c2ccc3nccc(-c4ccncc4)c3c2)S1 (top concentration tested 10000 nM) | 0 | 3.49 | 15.4 | 11.3
O=C(Nc1ccc(-c2ccnc(Nc3ccc(N4CCOCC4)cc3)n2)cc1)C1CCCN1 (stereo not drawn) [XL019] (top concentration tested 10000 nM) | 0 | 0 | 1.98 | 2.07
COc1ccc(-c2ccc3ncc4c(c3c2)n(-c2ccc(N3CCNCC3)c(C(F)(F)F)c2)c(=O)n4C)cn1 [NVP-BGT226] (top concentration tested 1000 nM) | 4.28 | 9.37 | 24.6 | 28
Cc1cccc(-c2[nH]c(CNc3ccccc3F)nc2-c2ccc3ncnn3c2)n1 [TEW-7197] (top concentration tested 2500 nM) | 0 | 0.27 | 2.53 | 1.04
Oc1nc(-c2ccc(C(F)(F)F)cc2)nc2c1CSCC2 [XAV-939] (top concentration tested 10000 nM) | 0 | 0 | 0.17 | 1.46
CCn1cc(-c2ccnc3[nH]c(-c4cccc(CN(C)C)c4)cc23)c(-c2ccc(NC(=O)N(C)C)cc2)n1 (top concentration tested 1000 nM) | 0 | 0.19 | 4.73 | 5.64
COC(=O)c1ccc2c(c1)NC(=O)/C2=C(\Nc1ccc(N(C)C(=O)CN2CCN(C)CC2)cc1)c1ccccc1 [Nintedanib] (top concentration tested 10000 nM) | 3.45 | 6.55 | 8 | 9.79
CCn1c(=O)c(-c2ccc(Cl)cc2Cl)cc2cnc(Nc3ccc(N4CCNCC4)c(F)c3)nc21 [FRAX486] (top concentration tested 5000 nM) | 0 | 6.75 | 6.38 | 9.57
C=C(c1ccc(C(=O)O)cc1)c1cc2c(cc1C)C(C)(C)CCC2(C)C [Bexarotene] (top concentration tested 10000 nM) | 0 | 0 | 2 | 3.75
C=CC(=O)Nc1cccc(Nc2nc(Nc3ccc(N4CCN(C(C)=O)CC4)cc3OC)ncc2C(F)(F)F)c1 [Rociletinib] (top concentration tested 10000 nM) | 0.23 | 4.1 | 8.18 | 7.99
COc1cc2c(cc1O)CC[C@@H]1[C@@H]2CC[C@]2(C)[C@@H](O)CC[C@@H]12 [2-methoxyestradiol] (top concentration tested 10000 nM) | 0 | 5.9 | 6.57 | 10.6
C[C@@H]1CN(Cc2ccc(F)cc2)[C@@H](C)CN1C(=O)c1cc2c(C(=O)C(=O)N(C)C)cn(C)c2cc1Cl [Talmapimod] (top concentration tested 10000 nM) | 0 | 0 | 3.93 | 1.23
